Measured values published in patent US10745393B2, “Small molecular probes, processes and use thereof” (JAWAHARLAL NEHRU CENTRE FOR ADVANCED SCIENTIFIC RESEARCH, priority 2014, dated 2020).
Marks after values point to notes of the source that are not given here.

Columns and labels:
(GC)10 = test: Fluorescence response / quantum yield of probes with dsDNA (GC)10; type: binding
Aβ42 aggregates = Aβ42 aggregates (Homo sapiens, UniProt P05067); test: Binding saturation assay (fluorescence) for binding constant
(D2)mix [1] = test: Agarose gel electrophoresis staining of dsDNA band; type: binding; conditions: 3% agarose gel, about 0.6 μg dsDNA, UV-illumination
[2] = test system: (AT)20-Hoechst 33258 complex; test: Competitive binding / FRET / CD study with preformed Hoechst complex; conditions: Hoechst 4 μM + (AT)20, TC 0 to 40 μM, CD signal
calf-thymus DNA (ct-DNA) = test: Fluorescence response in presence of calf-thymus DNA; type: binding; conditions: TC 10 μM, ct-DNA 200 μg/mL
Excerpt: Furthermore, the fluorescence response of TC in presence of calf-thymus DNA (ct-DNA) is also studied.

(D1)mix [3] = test: Fluorescence response / quantum yield of probes with dsDNA (D1)mix; type: binding
(D1)mix [4] = test: Thermal denaturation (UV-melting) of dsDNA with probe TC; type: binding
HeLa S3 cells = test: Confocal fluorescence nuclear staining, co-staining with Hoechst 33258; type: cell-based; conditions: TC 5 μM
(D2)mix [5] = test: Thermal denaturation (UV-melting) of dsDNA with probe TC; type: binding
DNA = test: Comparison of DNA dyes: sequence selectivity and fluorescence of free/DNA bound dye; type: binding
[6] = target: T1, islet amyloid polypeptide (IAPP) aggregates (Homo sapiens, UniProt P10997); test: Selectivity: fluorescence with IAPP aggregates; type: binding; conditions: IAPP aggregates 20 μM
T1 construct: A 0.1 mg (Merck, calbiochem) sample of amylin is dissolved in 100 μL of acetonitrile; purchased Merck, calbiochem

[7] = Tris-HCl buffer (100 mM, pH 7.4)
[8] = Table 3, probe of the disclosure

Sequence of Aβ42 aggregates (P05067 672-713 limits assumed): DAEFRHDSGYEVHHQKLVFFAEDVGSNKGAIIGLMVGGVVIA
T1 sequence (P10997 34-70 limits assumed): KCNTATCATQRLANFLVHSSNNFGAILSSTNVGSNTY

Q: How did the “ΦF with (GC)10” value ((GC)10; [7]) turn out when `CCN(CC)c1ccc2cc(/C=C/c3sc4ccccc4[n+]3C)c(=O)oc2c1` [TC, (E)-3-(2-(N-methyl-benzo[d]thiazol-2-yl)vinyl)-7-(diethylamino)-2H-chromen-2-one] was run?
A: The value was 0.04.

Q: What about the “fluorescence change in presence of (GC)10” value ((GC)10; probe 10 μM) of the same molecule?
A: The value was “does not show such fluorescence enhancement”.

Q: And the “association constant Ka” value (Aβ42 aggregates; 2 μM of Aβ42 aggregates)?
A: Its value is 1.72e+07 M⁻¹.

Q: And the Kd (Aβ42 aggregates; fluorescence saturation curve, Aβ42 aggregates 10 μM (QC) or 2 μM (TC), read-out: dissociation constant Kd)?
A: The Kd was 58 ± 1.2 nM.

Q: What about the “gel staining of (D2)mix band” value ((D2)mix [1]) of the same molecule?
A: The value was “strong fluorescence intensity”.

Q: What about the “competition with Hoechst for minor groove binding site” value [2] of the same molecule?
A: Its value is “not competing with Hoechst for binding site in the minor groove of dsDNA”.

Q: What about the “fluorescence response in presence of ct-DNA” value (calf-thymus DNA (ct-DNA)) of the same molecule?
A: The value was “strong fluorescence enhancement”.

Q: And the “fluorescence enhancement in presence of (D1)mix” value ((D1)mix [3]; TC 10 μM, DNA 0 to 12 μM)?
A: The value was roughly 6 fold.

Q: What about the “ΦF with (D1)mix” value ((D1)mix [3]; [7]) of the same molecule?
A: Its value is 0.11.

Q: And the “fluorescence enhancement in presence of (D1)mix” value ((D1)mix [3]; increasing concentrations of TC (1 μM to 20 μM), FIG. 10)?
A: The value was roughly 6 fold.

Q: And the “Tm(DNA + TC)” value ((D1)mix [4])?
A: The value was 61.6 °C.

Q: What about the “nuclear staining of HeLa S3 cells” value (HeLa S3 cells) of the same molecule?
A: Its value is “selective targeting to the cell nucleus”.

Q: What about the “Tm(DNA + TC)” value ((D2)mix [5]) of the same molecule?
A: The value was 73.5 °C.

Q: And the ΔTm ((D2)mix [5]; TC bound vs unbound)?
A: Its ΔTm is 1.6 °C.

Q: And the “Fluorescence maxima DNA bound dye” value (DNA; [8])?
A: Its value is 610 nm.

Q: What about the “Fluorescence maxima free dye” value (DNA; [8]) of the same molecule?
A: Its value is 641 nm.

Q: And the “Fluorescence qauntum yield (ΦF) DNA bound dye” value (DNA; Table 3, superscript b)?
A: The value was 0.36^b.

Q: What about the “preferential binding affinity, AT-sites versus GC-sites” value (DNA; fluorescence studies with dsDNAs) of the same molecule?
A: The value was “towards AT-sites than GC-sites”.

Q: And the “fluorescence enhancement with IAPP aggregates” value [6]?
A: Its value is “does not lead to significant fluorescence enhancements”.
